The target in one data set is T1, CB1 cannabinoid receptor (Mus musculus, UniProt P47746).
T1 construct: male CD1 mice receive the test product per os; from tissue; host or cells: whole animal, male CD1 mice (gastrointestinal tract)
Nature of the data set: inhibition of gastrointestinal transit induced by racemic CP55,940 in mice (charcoal bolus). The format is in vivo. The note with it: male CD1 mice, 3 hours after administration of the product, CP55,940 0.15 mg/kg ip. The protocol: Their antagonist activity was also shown by means of the model of inhibition of gastrointestinal transit induced by racemic CP55,940 (1RS, 3RS, 4RS)-3-[hydroxy-2-(1,1-dimethylheptyl)phenyl]-4-(3-hydroxypropyl)cyclohexan-1-ol) in mice, according to the method described by Rinaldi-Carmona et al., J. Pharmacol. Exp. Ther. 2004, 310, 905-914. Briefly, male CD1 mice receive the test product per os 30 minutes or 2 hours before administration of the racemic CP55,940 agonist ((1RS, 3RS, 4RS)-3-[hydroxy-2-(1,1-dimethylheptyl)phenyl]-4-(3-hydroxypropyl)cyclohexan-1-ol) (0.15 mg/kg ip in 10% cremophor). After a further 30 minutes, the animals receive a charcoal bolus po. Thirty minutes later, the animals are sacrificed by euthanasia (CO2/O2) and the intestine is dissected. The progression of the charcoal bolus in the intestine is expressed as percentage of the total length of the intestine.

The target of the next data set is T2, human CB1 receptor (Homo sapiens, UniProt P21554).
T2 construct: U373MG cells naturally expressing the human CB1 receptor; endogenous in cells; host or cells: U373MG cells
T2 sequence (P21554 whole entry): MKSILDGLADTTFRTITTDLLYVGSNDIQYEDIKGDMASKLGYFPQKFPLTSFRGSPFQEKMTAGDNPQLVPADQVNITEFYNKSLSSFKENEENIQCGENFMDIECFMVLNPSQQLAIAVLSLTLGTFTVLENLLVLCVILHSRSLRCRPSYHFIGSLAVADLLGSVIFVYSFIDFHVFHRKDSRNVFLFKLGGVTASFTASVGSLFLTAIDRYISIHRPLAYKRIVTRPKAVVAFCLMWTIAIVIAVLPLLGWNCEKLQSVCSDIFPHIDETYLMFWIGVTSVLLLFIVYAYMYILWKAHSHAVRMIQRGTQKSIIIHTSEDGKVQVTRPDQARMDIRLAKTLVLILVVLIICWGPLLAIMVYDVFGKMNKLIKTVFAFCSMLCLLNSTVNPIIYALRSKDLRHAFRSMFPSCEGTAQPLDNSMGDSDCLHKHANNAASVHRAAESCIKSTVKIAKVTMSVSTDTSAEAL
Nature of the data set: intracellular cyclic AMP functional test in U373MG cells (HTRF cAMP Dynamic Kit). Type of data set: cell-based. The note with it: U373MG cells naturally expressing the human CB1 receptor. The protocol: The compounds according to the invention have been the subject of pharmacological assays which make it possible to determine the activity with respect to human CB1-type cannabinoid receptors. The effectiveness of the compounds of formula (I) was determined in a functional test in which the activity of the CB1 cannabinoid receptors is measured (intracellular cyclic AMP test). The test for detecting intracellular cyclic AMP in U373MG cells naturally expressing the human CB1 receptor was carried out as described in the reference: Bouaboula et al., 1995, J. Biol. Chem. 270:13973-13980. The HTRF cAMP Dynamic Kit from CisBio was used to quantify the intracellular cyclic AMP. In this test, the IC50 values are between 0.001 μM and 1 μM.

T1 sequence (P47746 whole entry): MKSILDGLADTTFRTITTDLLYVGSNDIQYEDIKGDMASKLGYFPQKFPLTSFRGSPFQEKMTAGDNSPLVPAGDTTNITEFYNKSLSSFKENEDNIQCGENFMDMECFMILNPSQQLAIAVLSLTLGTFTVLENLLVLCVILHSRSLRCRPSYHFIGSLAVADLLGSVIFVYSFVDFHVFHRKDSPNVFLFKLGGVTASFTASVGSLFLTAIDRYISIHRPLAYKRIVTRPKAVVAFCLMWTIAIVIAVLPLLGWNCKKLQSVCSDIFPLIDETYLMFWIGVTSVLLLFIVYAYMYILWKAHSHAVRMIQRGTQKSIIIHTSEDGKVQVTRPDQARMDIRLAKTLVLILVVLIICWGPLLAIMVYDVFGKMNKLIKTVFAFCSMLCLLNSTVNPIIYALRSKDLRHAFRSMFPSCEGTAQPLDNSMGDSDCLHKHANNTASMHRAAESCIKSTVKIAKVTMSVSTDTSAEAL

In the case of `CCN1CCCC1CNC(=O)c1cccc(N(C2CN(C(c3ccc(Cl)cc3)c3ccc(Cl)cc3)C2)S(C)(=O)=O)c1` (single isomer, unassigned; (+)) [Compound No. 6, (+)-3-[{1[bis(4-Chlorophenyl)methyl]azetidin-3-yl}(methyl-sulphonyl)amino]-N-{[1-ethylpyrrolidin-2-yl]methyl}benzamide], the melting point – broadly, the temperature, or range, at which the solid turns liquid – was 122 °C. `CCN1CCCC1CNC(=O)c1cccc(N(C2CN(C(c3ccc(Cl)cc3)c3ccc(Cl)cc3)C2)S(C)(=O)=O)c1` (single isomer, unassigned; (-)) [Compound No. 5, (−)-3-[{1-[bis(4-Chlorophenyl)methyl]azetidin-3-yl}(methyl-sulphonyl)amino]-N-{[1-ethylpyrrolidin-2-yl]methyl}benzamide] displayed a melting point of 128 °C. Moreover, the “percentage inhibition, gastrointestinal transit model” value on CB1 cannabinoid receptor (1 mg/kg per os) was found to be 39%.

`CS(=O)(=O)N(c1cc(F)cc(C(=O)NC2CCNC2=O)c1)C1CN(C(c2ccc(Cl)cc2)c2ccc(Cl)cc2)C1` (single isomer, unassigned; (-)) [Compound No. 16, (−)-3-[{1-[bis(4-Chlorophenyl)methyl]azetidin-3-yl}(methylsulphonyl)amino]-5-fluoro-N-[2-oxopyrrolidin-3-yl]benzamide]: the IC50 (in general, the point on the concentration scale where inhibition reaches its midpoint) against human CB1 receptor worked out at 0.007 µM. On to `CS(=O)(=O)N(c1cccc(C(=O)NC2CCS(=O)(=O)C2)c1)C1CN(C(c2ccc(Cl)cc2)c2ccc(Cl)cc2)C1` (centres unmarked) [Compound No. 2, 3-[{1-[bis(4-Chlorophenyl)methyl]azetidin-3-yl}(methylsulphonyl)amino]-N-(1,1-dioxidotetrahydrothiophen-3-yl)benzamide], for which inhibition against human CB1 receptor was half-maximal at 0.047 µM (IC50). In addition, on CB1 cannabinoid receptor (2 mg/kg per os), the “percentage inhibition, gastrointestinal transit model” value was found to be 57%. As for `CS(=O)(=O)N(c1cc(F)cc(C(=O)NC2CCNC2=O)c1)C1CN(C(c2ccc(Cl)cc2)c2ccc(Cl)cc2)C1` (centres unmarked) [Compound No. 14, 3-[{1[bis(4-Chlorophenyl)methyl]azetidin-3-yl}(methyl-sulphonyl)amino]-5-fluoro-N-(2-oxopyrrolidin-3-yl)benzamide], the half-inhibitory concentration (IC50) on human CB1 receptor stood at 0.009 µM. For the molecule `CS(=O)(=O)N(c1cccc(C(=O)NCCN2CCNC2=O)c1)C1CN(C(c2ccc(Cl)cc2)c2ccc(Cl)cc2)C1` [compound 9, 3-[{1-[bis(4-chlorophenyl)methyl]azetidin-3-yl}(methylsulphonyl)amino]-N-[2-(2-oxoimidazolidin-1-yl)ethyl]benzamide], the melting point is 130 °C. The same molecule registered a half-maximal inhibitory concentration (IC50) against human CB1 receptor of 0.13 µM. `CS(=O)(=O)N(c1cccc(C(=O)NC2CCSCC2)c1)C1CN(C(c2ccc(Cl)cc2)c2ccc(Cl)cc2)C1` [compound 10, 3-[{1-[bis(4-chlorophenyl)methyl]azetidin-3-yl}(methylsulphonyl)amino]-N-(tetrahydro-2H-thiopyran-4-yl)benzamide] showed a melting point of 210 °C. On the same count and under the same terms, the figure for `CS(=O)(=O)N(c1cccc(C(=O)NC2CCS(=O)(=O)CC2)c1)C1CN(C(c2ccc(Cl)cc2)c2ccc(Cl)cc2)C1` [compound 11, 3-[{1-[bis(4-chlorophenyl)methyl]azetidin-3-yl}(methylsulphonyl)amino]-N-(1,1-dioxidotetrahydro-2H-thiopyran-4-yl)benzamide] is 270 °C.
